# Laboratory results as given in EPA's ToxValDB 9.5 (doi:10.2903/j.efsa.2008.187r).
# Values joined by “and” are separate entries in the source; they are usually repeats but may differ in a detail not shown here. Identical values can stand only once.
# Key:
# Colinus virginianus = settings: oral; for NOEL: short-term
# Coturnix japonica = settings: acute; oral; mortality
# Daphnia magna = settings: chronic/long-term; duration: 21 days; reproduction
# Tagia sp. = settings: chronic/long-term; duration: 8 weeks
# Apis mellifera = settings: acute, mortality
SMILES,NOEL (Anas platyrhynchos; reproductive),"NOEL (Anas platyrhynchos; short-term, oral, feed)","LD50 (Colinus virginianus; acute, mortality)",NOEL (Colinus virginianus; diet),LD50 (Coturnix japonica),NOEC (Daphnia magna),NOEC (Tagia sp.),"LC50 (Colinus virginianus; acute, diet, mortality)",LD50 (Apis mellifera; dermal),"LD50 (Apis mellifera; oral, unspecified)"
O.O.[Cu] [Copper hydroxide (Cu(OH)2)],7.05 mg/kg-day,216 mg/kg-day and 191 mg/kg-day,223 mg/kg,124 mg/kg-day and 132 mg/kg-day,556 mg/kg,,,,,
[Cu+].[Cu+].[O-2] [Cuprous oxide],,,,31.9 mg/kg-day,1180 mg/kg,,,,,
[Cl-].[Cu+2].[Cu+2].[OH-].[OH-].[OH-] [Dicopper chloride trihydroxide],,,511 mg/kg,,,0.0076 mg/L,< 15 mg/kg,333 mg/kg-day,44.3 µg/piece,12.1 µg/piece
